# Results from ChEMBL document CHEMBL1201862, “PubChem BioAssay data set” (2004).
# The source made the active and inactive calls.
# Experiments:
# Bcl-2-related protein A1 [1] = target: T1, Bcl-2-related protein A1 (Mus musculus, UniProt Q07440); assay: Bfl-1 binding inhibitors, SAR follow-up, biochemical, fluorescence polarization (AID 1070)
# T1 sequence (Q07440 whole entry): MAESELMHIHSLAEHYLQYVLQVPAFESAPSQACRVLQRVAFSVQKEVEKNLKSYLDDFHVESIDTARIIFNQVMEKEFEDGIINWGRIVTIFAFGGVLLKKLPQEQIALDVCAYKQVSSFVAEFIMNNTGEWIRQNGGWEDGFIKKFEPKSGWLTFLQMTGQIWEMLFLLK
# Bcl-2-related protein A1 [2] = target: T1, Bcl-2-related protein A1; assay: small-molecule antagonists of Bfl-1/BH3 interaction – biochemical, TR-FRET, mouse Bfl-1, confirmation (AID 621);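 also: TR-FRET binding of GST-Bfl-1 to FITC-labelled Bid peptide via terbium antibody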
# [3] = target: Glyceraldehyde-3-phosphate dehydrogenase (Homo sapiens, UniProt P04406)
# [4] = NIH3T3 cell viability loss – ATP luminescence, mouse fibroblasts, counter-screen, dose response (AID 2010); format: functional, cell-based;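 also: cells exposed to compound for about 90 hours before reading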
# [5] = Trypanosoma cruzi growth suppression in host cells – NIH3T3 host cells, beta-gal luminescence, confirmation (AID 2044); format: functional, cell-based;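 also: intracellular parasites grown in NIH/3T3 mouse fibroblasts as host cells; luminescent beta-galactosidase reporter signal from transgenic T. cruzi replicating inside host cells; inhibitors lower the luminescence signal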
# [6] = Luminescence Cell-Based Dose Retest to Confirm Inhibitors of Cancer Stem Cells. [Related pubchem assays (depositor defined):AID2717, AID2721]; format: functional; conditions: Homo sapiens
# [7] = target: G-protein coupled receptor 55 (Homo sapiens, UniProt Q9Y2T6); assay: inhibition of LPI-stimulated GPR55 beta-arrestin translocation – imaging, U2OS, beta-arrestin-GFP, LPI agonist, primary screen (AID 2013); format: functional;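 also: antagonist potency measured as reduced agonist-driven arrestin aggregation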
# [8] = M. tuberculosis H37Rv growth inhibitors, H37Rv strain (AID 1626); format: functional
# [9] = Luminescence Cell-Based Dose Response to Identify Activators of 5'UTR Stem-Loop Driven Prion Protein mRNA Translation in H4-C Neuroglioblastoma Cells. [Related pubchem assays: 1829 (Project Summary), 1814 (Primary HTS)]; format: functional
# Cytochrome P450 2C9 = Cytochrome P450 2C9 (Homo sapiens, UniProt P11712)
# [10] = Luminescence Cell-Based Dose Confirmation to Identify Activators of 5'UTR Stem-Loop Driven Alpha-Synuclein mRNA Translation in H4 Neuroglioblastoma Cells. [Related pubchem assays: 1829 (Project Summary), 1814 (Primary HTS)]; format: functional
# [11] = Luminescence Cell-Based Dose Response HTS to Identify Activators of Luciferase Translation or Activity in H4 […] Cells. [Related pubchem assays: 1829 (Project Summary), 1814 (Primary HTS)]; format: functional
# [12] = Luminescence Cell-Based Dose Response to Identify Activators of Luciferase Translation or Activity in H4-C Neuroglioblastoma Cells. [Related pubchem assays: 1829 (Project Summary), 1814 (Primary HTS)]; format: functional
# [13] = target: T2, Dual specificity protein phosphatase 6 (Rattus norvegicus, UniProt Q64346); assay: inhibition of rat DUSP6 enzyme activity – biochemical, in vitro, primary screen (AID 425)
# T2 sequence (Q64346 whole entry): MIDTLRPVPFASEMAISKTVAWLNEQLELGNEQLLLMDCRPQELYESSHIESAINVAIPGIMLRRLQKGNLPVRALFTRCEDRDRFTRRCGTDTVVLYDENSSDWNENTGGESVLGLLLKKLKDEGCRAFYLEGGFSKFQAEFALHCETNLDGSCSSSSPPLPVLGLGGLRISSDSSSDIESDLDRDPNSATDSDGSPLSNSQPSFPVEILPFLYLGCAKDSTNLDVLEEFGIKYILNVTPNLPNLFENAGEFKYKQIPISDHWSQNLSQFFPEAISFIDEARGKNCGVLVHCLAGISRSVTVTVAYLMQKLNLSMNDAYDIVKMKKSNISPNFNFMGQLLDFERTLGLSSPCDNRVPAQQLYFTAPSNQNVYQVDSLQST
# [14] = target: T3, Neuropeptide Y receptor type 2 (Homo sapiens, UniProt P49146); format: functional, cell-based;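 also: HEK293 cells expressing the receptor and a CNG channel; stimulus was NPY near EC95 followed by isoproterenol to raise cAMP; antagonist potency measured as restoring cAMP signal that NPY suppresses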
# T3 sequence (P49146 whole entry): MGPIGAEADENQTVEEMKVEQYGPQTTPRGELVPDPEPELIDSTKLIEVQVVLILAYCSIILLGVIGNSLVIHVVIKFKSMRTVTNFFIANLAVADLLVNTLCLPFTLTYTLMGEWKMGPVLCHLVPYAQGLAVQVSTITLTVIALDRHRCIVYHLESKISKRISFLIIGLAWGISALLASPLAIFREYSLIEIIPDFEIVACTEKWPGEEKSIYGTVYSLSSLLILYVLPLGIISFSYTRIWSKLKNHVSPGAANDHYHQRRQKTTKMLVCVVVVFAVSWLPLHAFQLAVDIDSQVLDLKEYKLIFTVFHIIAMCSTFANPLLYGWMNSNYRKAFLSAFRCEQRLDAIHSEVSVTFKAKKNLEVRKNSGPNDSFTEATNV
# [15] = target: T4, Neuropeptide Y receptor type 1 (Homo sapiens, UniProt P25929); format: functional;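 also: HEK293 cells with a CNG channel challenged with NPY then isoproterenol; potency as antagonist that reverses NPY suppression of cAMP signal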
# T4 sequence (P25929 whole entry): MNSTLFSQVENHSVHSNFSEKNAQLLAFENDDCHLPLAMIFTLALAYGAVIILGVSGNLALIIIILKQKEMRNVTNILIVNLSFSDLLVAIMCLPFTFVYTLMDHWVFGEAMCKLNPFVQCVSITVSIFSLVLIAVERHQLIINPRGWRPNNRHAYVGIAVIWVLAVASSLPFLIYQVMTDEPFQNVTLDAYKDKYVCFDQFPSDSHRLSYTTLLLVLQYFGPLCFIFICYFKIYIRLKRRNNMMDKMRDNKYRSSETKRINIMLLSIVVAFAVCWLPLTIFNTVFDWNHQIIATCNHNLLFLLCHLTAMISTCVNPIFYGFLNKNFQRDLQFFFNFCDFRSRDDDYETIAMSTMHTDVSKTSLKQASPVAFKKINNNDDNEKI
# Large T antigen = Large T antigen (Simian virus 40, UniProt P03070); format: functional, Betapolyomavirus macacae;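 also: Confirmatory-stage PubChem screen for compounds that inhibit SV40 T antigen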
# [16] = target: T5, Mannose-6-phosphate isomerase (Homo sapiens, UniProt P34949); assay: MPI inhibition at elevated mannose 6-phosphate – biochemical, fluorescence intensity, high mannose 6-phosphate, primary screen (AID 1220)
# T5 sequence (P34949 whole entry): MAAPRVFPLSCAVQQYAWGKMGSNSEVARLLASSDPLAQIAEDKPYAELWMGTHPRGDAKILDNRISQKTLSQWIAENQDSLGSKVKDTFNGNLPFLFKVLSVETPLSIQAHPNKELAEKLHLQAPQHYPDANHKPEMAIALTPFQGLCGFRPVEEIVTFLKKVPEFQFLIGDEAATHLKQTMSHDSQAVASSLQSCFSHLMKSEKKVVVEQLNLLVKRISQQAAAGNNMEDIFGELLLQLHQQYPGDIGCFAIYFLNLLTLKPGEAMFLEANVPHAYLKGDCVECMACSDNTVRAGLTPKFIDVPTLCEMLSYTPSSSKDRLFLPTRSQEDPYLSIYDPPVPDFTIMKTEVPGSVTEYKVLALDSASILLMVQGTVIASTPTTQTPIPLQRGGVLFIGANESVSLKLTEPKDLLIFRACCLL
# [17] = target: T5, Mannose-6-phosphate isomerase; assay: MPI enzyme activity inhibition – biochemical, fluorescence intensity, coupled assay, primary screen (AID 1209)
# Vero = assay: viability of Vero cells under compound – cytotoxicity control for flavivirus capping enzyme inhibitors (AID 588742); format: functional; conditions: Chlorocebus sabaeus
# [18] = target: T6, Polyadenylate-binding protein 1 (Homo sapiens, UniProt P11940); assay: MLLE binding blockers, Cy5 peptide tracer – biochemical, fluorescence polarization, Cy5-PAM2 peptide, secondary, miRNA deadenylation inhibitor project, dose response (AID 602260); format: functional; conditions: read-out: IC50_Mean
# [19] = target: T7, Replicative DNA helicase DnaB (Mycobacterium tuberculosis, UniProt P9WMR3); assay: DnaB intein splicing inhibitors, dose response, biochemical, cell-free fluorescence (AID 449749); format: functional
# T7 sequence (P9WMR3 whole entry): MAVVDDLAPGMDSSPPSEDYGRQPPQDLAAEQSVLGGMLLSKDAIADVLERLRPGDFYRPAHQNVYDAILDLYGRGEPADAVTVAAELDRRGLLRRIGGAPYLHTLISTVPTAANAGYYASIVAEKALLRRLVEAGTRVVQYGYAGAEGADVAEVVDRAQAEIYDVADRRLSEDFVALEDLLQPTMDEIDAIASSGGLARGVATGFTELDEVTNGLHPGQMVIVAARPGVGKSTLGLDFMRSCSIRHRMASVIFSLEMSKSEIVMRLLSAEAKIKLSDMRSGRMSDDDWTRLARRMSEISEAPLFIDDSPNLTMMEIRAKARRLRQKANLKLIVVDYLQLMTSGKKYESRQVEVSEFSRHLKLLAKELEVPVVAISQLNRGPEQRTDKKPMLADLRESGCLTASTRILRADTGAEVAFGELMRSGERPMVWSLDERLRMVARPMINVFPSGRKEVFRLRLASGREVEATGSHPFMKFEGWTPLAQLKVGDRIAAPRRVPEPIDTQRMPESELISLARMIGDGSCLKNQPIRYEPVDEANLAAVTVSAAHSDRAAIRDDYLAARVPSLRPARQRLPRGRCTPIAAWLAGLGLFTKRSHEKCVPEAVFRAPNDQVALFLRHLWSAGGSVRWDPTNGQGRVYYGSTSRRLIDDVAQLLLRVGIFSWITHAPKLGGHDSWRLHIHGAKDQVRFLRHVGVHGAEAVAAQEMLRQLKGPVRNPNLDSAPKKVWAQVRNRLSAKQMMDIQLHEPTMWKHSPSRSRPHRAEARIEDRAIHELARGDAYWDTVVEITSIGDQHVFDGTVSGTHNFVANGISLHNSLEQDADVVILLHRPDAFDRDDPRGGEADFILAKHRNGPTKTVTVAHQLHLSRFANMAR
# [20] = target: T6, Polyadenylate-binding protein 1; assay: MLLE domain peptide-binding blockers, IC50 – biochemical, fluorescence polarization, FITC-PAM2 peptide, dose response (AID 602259); format: functional; conditions: read-out: IC50_Mean
# Protein RecA = target: T8, Protein RecA (Mycobacterium tuberculosis, UniProt P9WHJ3); assay: Fluorescence Cell-Free Homogeneous Dose Retest to Identify Inhibitors of RecA-Intein Splicing Activity. [Related pubchem assays (depositor defined):AID2097, AID2223, AID489010, AID492950]; format: functional
# T8 sequence (P9WHJ3 whole entry): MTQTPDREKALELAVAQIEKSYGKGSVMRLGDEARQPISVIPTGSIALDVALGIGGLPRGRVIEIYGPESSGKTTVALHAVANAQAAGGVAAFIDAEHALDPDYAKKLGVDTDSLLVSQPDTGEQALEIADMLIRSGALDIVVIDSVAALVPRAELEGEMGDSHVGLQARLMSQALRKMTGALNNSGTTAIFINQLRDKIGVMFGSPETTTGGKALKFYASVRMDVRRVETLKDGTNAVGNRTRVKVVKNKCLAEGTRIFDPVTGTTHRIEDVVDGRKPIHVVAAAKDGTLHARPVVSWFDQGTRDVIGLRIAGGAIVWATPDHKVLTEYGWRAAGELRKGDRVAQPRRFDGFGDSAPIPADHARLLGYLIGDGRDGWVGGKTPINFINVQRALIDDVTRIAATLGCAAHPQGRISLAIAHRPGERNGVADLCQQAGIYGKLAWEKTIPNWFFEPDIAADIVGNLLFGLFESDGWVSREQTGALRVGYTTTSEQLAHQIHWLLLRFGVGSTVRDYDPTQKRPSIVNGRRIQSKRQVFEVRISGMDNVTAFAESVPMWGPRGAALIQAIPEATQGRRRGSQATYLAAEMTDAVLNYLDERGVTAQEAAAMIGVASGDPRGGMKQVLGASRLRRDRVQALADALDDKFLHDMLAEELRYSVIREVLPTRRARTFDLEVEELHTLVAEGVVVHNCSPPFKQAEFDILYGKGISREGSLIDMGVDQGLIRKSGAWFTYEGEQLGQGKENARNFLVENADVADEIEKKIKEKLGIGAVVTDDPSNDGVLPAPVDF
# T6 sequence (P11940 whole entry): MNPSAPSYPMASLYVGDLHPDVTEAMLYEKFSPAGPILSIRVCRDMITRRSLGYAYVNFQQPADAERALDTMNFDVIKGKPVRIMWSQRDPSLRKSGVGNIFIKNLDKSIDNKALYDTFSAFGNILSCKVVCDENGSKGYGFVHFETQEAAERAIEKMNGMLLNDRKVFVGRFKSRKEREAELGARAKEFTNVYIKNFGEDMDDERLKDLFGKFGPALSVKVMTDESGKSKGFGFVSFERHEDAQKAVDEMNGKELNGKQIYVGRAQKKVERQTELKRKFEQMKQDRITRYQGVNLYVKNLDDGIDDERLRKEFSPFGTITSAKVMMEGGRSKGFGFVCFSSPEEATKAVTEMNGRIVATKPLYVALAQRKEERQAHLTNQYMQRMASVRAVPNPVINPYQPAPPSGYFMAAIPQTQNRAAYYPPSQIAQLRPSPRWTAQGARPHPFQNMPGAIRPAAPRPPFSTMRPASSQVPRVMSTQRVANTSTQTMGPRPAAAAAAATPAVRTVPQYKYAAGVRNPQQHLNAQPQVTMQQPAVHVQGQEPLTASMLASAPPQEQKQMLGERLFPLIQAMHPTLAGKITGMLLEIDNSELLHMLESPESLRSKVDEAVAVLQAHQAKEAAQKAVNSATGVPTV
# Chain of G-protein coupled receptor 55 (Q9Y2T6 whole entry): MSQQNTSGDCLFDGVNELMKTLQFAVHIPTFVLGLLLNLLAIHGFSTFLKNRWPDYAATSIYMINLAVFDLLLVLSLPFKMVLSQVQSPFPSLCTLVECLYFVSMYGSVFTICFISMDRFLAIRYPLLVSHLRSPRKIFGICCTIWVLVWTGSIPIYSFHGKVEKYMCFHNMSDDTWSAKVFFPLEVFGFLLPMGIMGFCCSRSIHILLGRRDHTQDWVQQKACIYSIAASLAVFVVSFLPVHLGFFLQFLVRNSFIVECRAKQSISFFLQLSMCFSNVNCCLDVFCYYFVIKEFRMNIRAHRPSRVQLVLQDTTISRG
# Chain of Large T antigen (P03070 whole entry): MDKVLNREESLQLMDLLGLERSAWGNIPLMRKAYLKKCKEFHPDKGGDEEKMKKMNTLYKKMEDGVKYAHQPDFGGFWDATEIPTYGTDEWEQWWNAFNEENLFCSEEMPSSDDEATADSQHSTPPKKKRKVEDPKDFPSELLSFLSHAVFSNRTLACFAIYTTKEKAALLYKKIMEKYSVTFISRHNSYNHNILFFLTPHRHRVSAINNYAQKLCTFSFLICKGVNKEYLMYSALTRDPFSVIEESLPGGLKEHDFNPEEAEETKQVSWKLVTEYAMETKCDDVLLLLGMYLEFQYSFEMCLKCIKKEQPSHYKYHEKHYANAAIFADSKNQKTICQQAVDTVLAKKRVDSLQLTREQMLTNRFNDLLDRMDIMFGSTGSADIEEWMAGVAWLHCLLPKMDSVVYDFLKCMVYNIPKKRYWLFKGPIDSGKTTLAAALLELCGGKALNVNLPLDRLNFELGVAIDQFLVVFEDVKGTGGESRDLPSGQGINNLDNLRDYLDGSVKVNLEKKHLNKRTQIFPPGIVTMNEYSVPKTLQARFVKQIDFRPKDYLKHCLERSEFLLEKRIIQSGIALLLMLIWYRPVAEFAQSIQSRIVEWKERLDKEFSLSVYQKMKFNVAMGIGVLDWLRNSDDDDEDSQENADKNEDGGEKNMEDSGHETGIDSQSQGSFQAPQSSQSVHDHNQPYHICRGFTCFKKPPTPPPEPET
# Chain of Cytochrome P450 2C9 (P11712 whole entry): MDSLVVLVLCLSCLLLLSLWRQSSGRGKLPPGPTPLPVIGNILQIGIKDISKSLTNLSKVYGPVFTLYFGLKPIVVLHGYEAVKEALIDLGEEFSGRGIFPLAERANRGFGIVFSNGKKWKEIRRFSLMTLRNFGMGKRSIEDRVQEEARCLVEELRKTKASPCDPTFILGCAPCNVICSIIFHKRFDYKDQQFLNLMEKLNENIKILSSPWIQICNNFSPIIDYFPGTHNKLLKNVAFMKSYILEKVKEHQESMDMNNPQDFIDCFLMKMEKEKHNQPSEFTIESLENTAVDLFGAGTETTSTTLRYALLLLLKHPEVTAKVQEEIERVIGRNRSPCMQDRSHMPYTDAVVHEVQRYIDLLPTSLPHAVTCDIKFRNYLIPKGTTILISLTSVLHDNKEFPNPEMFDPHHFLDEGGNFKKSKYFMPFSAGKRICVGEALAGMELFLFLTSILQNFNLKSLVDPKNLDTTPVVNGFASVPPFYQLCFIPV
# Chain of Glyceraldehyde-3-phosphate dehydrogenase (P04406 whole entry): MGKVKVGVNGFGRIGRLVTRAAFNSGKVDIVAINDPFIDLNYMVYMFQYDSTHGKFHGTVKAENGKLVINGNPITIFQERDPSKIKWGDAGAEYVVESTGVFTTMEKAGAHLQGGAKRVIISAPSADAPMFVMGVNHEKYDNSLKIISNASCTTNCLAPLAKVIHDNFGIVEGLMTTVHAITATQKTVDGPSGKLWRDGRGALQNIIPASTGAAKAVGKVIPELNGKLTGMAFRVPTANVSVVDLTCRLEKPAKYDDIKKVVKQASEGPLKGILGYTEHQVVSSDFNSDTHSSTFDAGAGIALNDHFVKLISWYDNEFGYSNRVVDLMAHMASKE
structure (smiles),measurement,setting,value
CC1NC(C)C(C)N(C2=C(Cl)C(=O)N(c3ccc(Cl)c(Cl)c3)C2=O)C1C (stereo unspecified),IC50,Bcl-2-related protein A1 [1],> 100 µM (not active)
same,IC50,Bcl-2-related protein A1 [2],47 µM (active)
same,IC50,[3],> 100 µM (not active)
CN1CCC(OC(=O)c2cccc(Cl)c2)CC1,EC50,cells,0.102 µM (active)
same,EC50,[4],> 60 µM (not active)
same,EC50,[5],< 0.1 µM (active)
same,AC50,[6],1.3 µM (active)
Clc1nc2ccccc2cc1-c1nnn(-c2ccccc2)n1,IC50,Bcl-2-related protein A1 [1],> 100 µM (not active)
same,IC50,Bcl-2-related protein A1 [2],> 100 µM (not active)
O=C1N=C(N2CCOCC2)S/C1=C/c1ccc(-c2ccc(F)cc2)o1,IC50,[7],2.93 µM (active)
same,IC50,[8],> 100 µM (active)
Cc1nc2c3cnn(-c4ccc(C)c(C)c4)c3ncn2n1,EC50,[9],0.298 µM (active)
same,AC50,Cytochrome P450 2C9,20 µM (inconclusive)
same,EC50,[10],0.424 µM (active)
same,EC50,[11],< 0.1 µM (active)
same,EC50,[12],0.341 µM (active)
Cc1c(N=c2c(=O)c3ccccc3c2=O)c(=O)n(-c2ccccc2)n1C,IC50,[13],> 100 µM (not active)
c1ccc(COc2ccc(OCCCCN3CCCCC3)cc2)cc1,IC50,[14],> 35 µM (not active)
same,IC50,[15],9.46 µM (active)
Cc1nnc2n(c1=O)N=C(c1ccc(Cl)cc1)CS2,EC50,[9],0.355 µM (active)
same,EC50,[10],0.244 µM (active)
same,EC50,[11],< 0.1 µM (inconclusive)
same,EC50,[12],0.249 µM (active)
COc1ccc2c(c1)-c1nc(/N=C/c3ccc(O)c(OC)c3)sc1CC2,IC50,Large T antigen,15.5 µM (active)
same,IC50,[16],> 50 µM (not active)
same,IC50,[17],> 50 µM (not active)
CCOC(=O)c1c(C)oc2c1c(/C=N/CCO)c(O)c1ccccc12,CC50,Vero,32.9 µM (active)
same,IC50,[18],> 66 µM (inactive)
same,AC50,[19],> 380 µM (inactive)
same,IC50,[16],4.48 µM (active)
same,IC50,[20],> 66 µM (inactive)
same,EC50,Protein RecA,0.618 µM (active)
same,IC50,[17],5.36 µM (active)
O=C(N/N=C/c1ccc([N+](=O)[O-])o1)c1cn(-c2ccccc2)nc1-c1ccccc1,EC50,cells,0.054 µM (active)
same,EC50,[4],> 60 µM (not active)
same,EC50,[5],< 0.1 µM (active)
